From PubChem BioAssay (NCI)
Values joined by “and” are separate entries in the source; they are usually repeats but may differ in a detail not shown here. Identical values can stand only once.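 The compound was tested at five concentrations on cells cultured in 96-well plates, with a 48-hour exposure period. GI50 is the concentration that inhibits growth by half. The concentration for full growth arrest is given as TGI.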 Where a SMILES comes first, the peptide text is derived from it. [ ]: non-standard residue; d: D form. The star is where a group is joined. ξ: configuration not given here. X3 = COc1ccc(C(N*)c2ccc(OC)cc2)cc1; NMeF = CN[C@@H](Cc1ccccc1)C(=O)O; NMeD = CN[C@@H](CC(=O)O)C(=O)O; NMeV = CN[C@H](C(=O)O)C(C)C; ξNMeV = CNC(C(=O)O)C(C)C; Boc = CC(C)(C)OC(=O)*; ξNMeA = CNC(C)C(=O)O; ξV = CC(C)C(N)C(=O)O

Key:
Test in all cases: NCI-60 cell line screen, 48 h
[1] = system: A498 renal
[2] = system: A549 NSCLC
[3] = system: HS 578T breast
[4] = system: LOX IMVI melanoma
[5] = system: NCI-H226 lung
[6] = system: NCI-H460 lung
[7] = system: NCI-H522 lung
[8] = system: NCI/ADR-RES ovarian
[9] = system: SF-295 CNS
[10] = system: U251 CNS

Structure (SMILES)	GI50 [1] [µM]	TGI [1]	GI50 [2] [µM]	TGI [2]	GI50 [3] [µM]	TGI [3] [µM]	GI50 [4] [µM]	TGI [4]	TGI [5]	GI50 [6] [µM]	TGI [6]	GI50 [7] [µM]	TGI [7]	GI50 [8] [µM]	TGI [8] [µM]	GI50 [9] [µM]	TGI [9]	GI50 [10] [µM]	TGI [10]	GI50 [5] [µM]
COc1cc(/C(C#N)=C/c2nc3c(N4CCOCC4)nc(Cl)nc3n2C)cc(OC)c1OC	< 0.01	< 0.01 µM	< 0.01	> 45.5 µM	< 0.01	> 23.7	< 0.01	4.17 µM	3.03 µM	< 0.01	5.37 µM	< 0.01	2.88 µM	< 0.01	5.56	< 0.01	1.49 µM	< 0.01	> 32.2 µM	
COc1ccc(C(NC(=O)C[C@@H](C(=O)N(C)C(C)C(=O)O)N(C)C(=O)[C@@H]2CCCN2C(=O)[C@H](C(C)C)N(C)C(=O)C(C(C)C)N(C)C(=O)[C@H](Cc2ccccc2)N(C)C(=O)C(NC(=O)OC(C)(C)C)C(C)C)c2ccc(OC)cc2)cc1 (stereo partly specified) (Boc-[ξV][NMeF][ξNMeV][NMeV]P[NMeD](X3)[ξNMeA]-OH)	20.1	> 37.5 µM and 35.7 µM	17.1	> 37.5 µM and 31.7 µM		7.32	17.2	15.7 µM and 31.2 µM	19.2 µM and 32.3 µM	17.8	37.5 µM and 33.3 µM	17.5	27.4 µM and 31.3 µM		> 37.5		30.2 µM and 32.8 µM	19.4	23.6 µM and 35.7 µM	18
COc1ccc2nc3cc(Cl)ccc3c(NCCNCC(C)O)c2c1 (stereo unspecified)	1.28	2.84 µM	1.52	3.16 µM	4.47	21.3	1.15	2.66 µM	6.04 µM	0.668	2.99 µM	1.48	3.1 µM	3.08	14	1.68	6.71 µM	1.99	4.62 µM	2.3
O=C1CCCCN1c1ccccc1C#C/C=C\C#Cc1ccccc1C(F)(F)F	2.25	28.4 µM	1.57	5.16 µM	3.75	> 50	1.84	8.87 µM	3.7 µM	2.16	> 50 µM	1.19	3.1 µM	0.946	2.48	1.11	3.16 µM	1.52	5.26 µM	1.28
CCn1c(-c2nonc2N)nc2c(C#CC(C)(C)O)nc(OC[C@@H](N)c3ccccc3)cc21	2.2	12.4 µM	4.36	9.18 µM	4.56	10.7	4.2	8.82 µM	16.2 µM	3.97	8.12 µM	4.28	7.9 µM	5.16	11.7	4.59	9.63 µM	3.98	7.63 µM	11.9
CN(C)CC1CC/C(=C\c2ccc(O)cc2)C1=O (stereo unspecified)		21.3 µM		40.9 µM		40.9		5.51 µM	25.6 µM		37.2 µM		3.17 µM		21.5		34.5 µM		12.5 µM	
COc1ccc(CCN=C2NC(=O)/C(=C/c3ccc4ncccc4c3)S2)cc1	> 18.3	> 25 µM	> 25	> 25 µM	> 25	> 25	> 25	> 25 µM	> 25 µM	> 25	> 25 µM	> 25	> 25 µM	> 25	> 25	> 25	> 25 µM	> 25	> 25 µM	> 25
Cc1csc(-c2nnc(Nc3ccc(Oc4ncccc4-c4ccnc(N)n4)cc3)c3ccccc23)c1	> 100	> 100 µM	1.95	> 100 µM	> 100	> 100	0.433	> 100 µM	> 100 µM	0.0214	> 100 µM	5.31	> 69.1 µM	0.355	> 100	2.98	> 100 µM	> 100	> 100 µM	> 63.8
COc1cccc(C(=O)NC(c2ccc(C)cc2)c2cc(Cl)c3cccnc3c2O)c1 (stereo unspecified)	1.28	11.6 µM	0.473	11.2 µM	0.362	30.5	0.563	11.6 µM	2.57 µM	0.359	4.66 µM	0.291	1.65 µM	0.33	> 88.6	0.382	15.3 µM	0.333	11.2 µM	0.568
O=C(/C=C/c1ccc(O)cc1)c1ccc(O)cc1		65.1 µM		> 100 µM		> 67.5		28.1 µM	27.2 µM		72.5 µM		9.22 µM		> 63.1		> 96.7 µM		46.6 µM	
N#Cc1c[nH]n2c(N=Nc3ccc(Cl)cc3)c(O)nc12	44.2	96.3 µM	31.9	> 100 µM	56.9	> 100	28.8	> 100 µM	43.3 µM	29.1	> 100 µM	26.9	> 100 µM	25	83.8	30.1	> 100 µM	35.6	> 100 µM	18.5
c1ccc(Sc2ncnc3ccccc23)cc1	15.4	39.2 µM	18.1	68.3 µM	29.5	> 100	6.27	19.8 µM	56.2 µM	24.2	> 100 µM	7.19	29.1 µM	11.8	35	14.2	45.6 µM	12.9	31.8 µM	13.4
